Data set [1] deals with EBOV mucin-domain-deleted glycoprotein pseudotyped VSV. Description: microbe, parasite or virus in culture. It is filed as cell-based, Zaire ebolavirus. The note with it: Zaire ebolavirus, Vero, read-out: EC50 EBOV.
Data set [2] in a line: in vitro. Particulars: African green monkey, CC50.
Data set [3] concerns BDBV mucin-domain-deleted glycoprotein pseudotyped VSV. Description: microbe, parasite or virus in culture. Particulars: Vesicular stomatitis virus, Vero, read-out: EC50 BDBV. In kind it is cell-based, Bundibugyo ebolavirus.

Consider 28 molecules from patent US12240857B2 (priority 2017, dated 2025).

Counter-ions that a name gives are not always drawn. Like-named read-outs stand apart in the source and are kept apart here.

As to `O=C(N1CCC2(CCN(Cc3ccccc3)C2)C1)C12CC3CC(C1)CC(c1ccccc1)(C3)C2` (stereo not drawn) [Example A1, 2-benzyl-7-[(3-phenyladamantan-1-yl)carbonyl]-2,7-diazaspiro[4.4]nonane], the figures for the EC50 in data set [1] and in data set [3] were 220 nM and 250 nM, respectively. Besides, the CC50 in data set [2] is 5800 nM.

With `O=C(CNC(=O)C12CC3CC(C1)CC(c1ccccc1)(C3)C2)N1CCC2(CCN(Cc3ccccc3)C2)C1` (stereo not drawn) [Example A2], the values for the EC50 in data set [1] and in data set [3] were 300 nM and 390 nM, respectively. In data set [2], this molecule had a CC50 of 8500 nM.

As for `COC(=O)c1ccc(COc2ccccc2CN2CCN(C(=O)CNC(=O)C34CC5CC(C3)CC(c3ccccc3)(C5)C4)CC2)cc1` [Example A3], the concentration for a half-maximal effect (EC50) (usually the midpoint of the concentration-response curve) amounted to 30 nM in data set [1] and 1240 nM in data set [3]. Also, the CC50 in data set [2] is > 3000 nM.

As for `COC(=O)c1ccc(COc2ccccc2CN2CCN(C(=O)CNC(=O)CC34CC5CC(C3)CC(c3ccccc3)(C5)C4)CC2)cc1` [Example A4], the values for the EC50 in data set [1] and in data set [3] were 190 nM and 1240 nM, respectively. The CC50 in data set [2] was > 3000 nM.

On to `COC(=O)c1ccc(COc2ccccc2CN2CCN(C(=O)CNC(=O)C34CC5CC(CC3C5)C4)CC2)cc1` [Example A5], for which the EC50 in data set [1] amounted to 1400 nM; in data set [3], 3900 nM. The CC50 in data set [2] was > 3000 nM.

As to `O=C(CNC(=O)C12CC3CC(C1)CC(c1ccccc1)(C3)C2)NC1CCN(Cc2ccccc2)CC1` [Example A6], the EC50 in data set [1] is 210 nM; in data set [3] it was 250 nM. The CC50 in data set [2] stood at 16800 nM.

For `O=C(CNC(=O)C12CC3CC(C1)CC(c1ccccc1)(C3)C2)N[C@@H]1CCN(Cc2ccccc2)C1` [Example A7], the EC50 amounted to 480 nM in data set [1] and 840 nM in data set [3]. The CC50 in data set [2] is > 10000 nM.

For the molecule `O=C(CNC(=O)C12CC3CC(C1)CC(c1ccccc1)(C3)C2)N1CC2CC1CN2Cc1ccccc1` (stereo not drawn) [Example A8], the EC50 was found to be 190 nM in data set [1] and 220 nM in data set [3]. The CC50 in data set [2] is > 10000 nM.

On to `O=C(N1CC2(CN(Cc3ccccc3)C2)C1)C12CC3CC(C1)CC(c1ccccc1)(C3)C2` [Example A9], for which the figures for the EC50 in data set [1] and in data set [3] were 230 nM and 290 nM, respectively. In addition, the CC50 in data set [2] was found to be 10800 nM.

For the molecule `O=C(N1CC2(CCN(Cc3ccccc3)C2)C1)C12CC3CC(C1)CC(c1ccccc1)(C3)C2` [Example A10], the EC50 in data set [1] came to 240 nM; in data set [3] it was 210 nM. Also, in data set [2], the CC50 came to 6900 nM.

As to `CCN1CCN(C(=O)C23CC4CC(C2)CC(c2ccc(C)cc2)(C4)C3)CC1` [Example B16, 1-ethyl-4-{[3-(4-methylphenyl)adamantan 1-yl]carbonyl} piperazine], the EC50 is 1000 nM in data set [1] (24 h) and 900 nM in data set [3] (24 h).

In the case of `CC(C)C(NC(=O)C12CC3CC(CC(C3)C1)C2)C(=O)NC1CCN(Cc2ccccc2)CC1` (stereo not drawn) [Example B17, 2-(adamantan-1-ylformamido)-N-(1-benzylpiperidin-4-yl)-3-methylbutanamide], the EC50 in data set [1] (24 h) is > 5000 nM; in data set [3] (24 h), < 5000 nM.

On to `Cc1ccc(C23CC4CC(CC(C(=O)N5CCN(CCO)CC5)(C4)C2)C3)cc1` [Example B18, 2-(4-{[3-(4-methylphenyl)adamantan-1-yl]carbonyl}piperazin-1-yl)ethan-1-ol], for which the EC50 in data set [1] (24 h) and in data set [3] (24 h) was > 5000 nM each time.

As to `O=C(NC1CCNCC1)C12CC3CC(CC(C3)C1)C2` [Example B19, N-(piperidin-4-yl)adamantane-1-carboxamide], the EC50 in data set [1] (24 h) is 1100 nM; in data set [3] (24 h), > 1000 nM.

Turning to `NCc1ccc(OCC23CC4CC(C2)CC(c2ccccc2)(C4)C3)cc1` [Example C17, {4-[(3-phenyladamantan-1-yl)methoxy]phenyl}methanamine], the values for the EC50 in data set [1] and in data set [3] were > 1000 nM and 1200 nM, respectively.

Consider `COc1ccc(OCC(O)CNCC23CC4CC(CC(C4)C2)C3)c(C(C)(C)C)c1` (stereo not drawn) [Example D2, (adamantan-1-ylmethyl) [3-(2-tert-butyl-4-methoxyphenoxy)-2-hydroxypropyl]amine], for which the EC50 came out at 680 nM in data set [1] (24 h) and 620 nM in data set [3] (24 h).

As to `COc1cccc(COCC(O)CNCC23CC4CC(CC(C4)C2)C3)c1` (stereo not drawn) [Example D6], the EC50 in data set [1] (24 h) turned out to be 3450 nM; in data set [3] (24 h), 1500 nM.

As for `O=C(CN1CCN(CCC23CC4CC(CC(C4)C2)C3)CC1)N1CCCCC1` [Example D7, 2-{4-[2-(adamantan-1-yl)ethyl]piperazin-1-yl}-1-(piperidin-1-yl) ethan-1-one], the EC50 came to 6000 nM in data set [1] (24 h) and 2600 nM in data set [3] (24 h).

Turning to `CCC1CCCCN1CC(O)COCCC12CC3CC(CC(C3)C1)C2` (stereo not drawn) [Example D9, 1-[2-(adamantan-1-yl)ethoxy]-3-(2-ethylpiperidin-1-yl)propan-2-ol hydrochloride], the values for the EC50 in data set [1] (24 h) and in data set [3] (24 h) were 250 nM and 210 nM, respectively.

Regarding `OC(COCCC12CC3CC(CC(C3)C1)C2)CN1CCc2ccccc2C1` (stereo not drawn) [Example D14, 1-[2-(adamantan-1-yl)ethoxy]-3-(1,2,3,4-tetrahydroisoquinolin-2-yl) propan-2-ol], the EC50 in data set [1] (24 h) came to 2100 nM; in data set [3] (24 h), 2670 nM.

Consider `OC(COCCC12CC3CC(CC(C3)C1)C2)CN1CCN(c2ccccn2)CC1` (stereo not drawn) [Example D15, 1-[2-(adamantan-1-yl)ethoxy]-3-[4-(pyridin-2-yl)piperazin-1-yl] propan-2-ol], for which the figures for the EC50 in data set [1] (24 h) and in data set [3] (24 h) were 2900 nM and 2800 nM, respectively.

Turning to `OCCN(CCO)CC(O)COCCC12CC3CC(CC(C3)C1)C2` (stereo not drawn) [Example D17, 2-({3-[2-(adamantan-1yl)ethoxy]-2-hydroxypropyl}(2-hydroxyethyl)amino)ethan-1-ol], the values for the EC50 in data set [1] (24 h) and in data set [3] (24 h) were 8800 nM and 600 nM, respectively.

`CN1CCCN(CC(O)COc2ccc(C34CC5CC(CC(C5)C3)C4)cc2)CC1` (stereo not drawn) [Example D30, 1-[4-(adamantan-1-yl)phenoxy]-3-(4-methyl-1,4-diazepan-1-yl)propan-2-ol]: the EC50 was determined as 190 nM in data set [1] (24 h) and 470 nM in data set [3] (24 h).

Regarding `OC(COc1ccc(C23CC4CC(CC(C4)C2)C3)cc1)CN1CCN(Cc2ccc3c(c2)OCO3)CC1` (stereo not drawn) [Example D31, 1-[4-(adamantan-1-yl)phenoxy]-3-[4-(2H-1,3-benzodioxo1-5-ylmethyl)piperazin-1-yl]propan-2-ol], the EC50 amounted to 230 nM in data set [1] (24 h) and 1030 nM in data set [3] (24 h).

`CN(C)CCNS(=O)(=O)c1ccc(C23CC4CC(CC(C4)C2)C3)cc1` [Example D33, 4-(adamantan-1-yl)-N-[2-(dimethylamino)ethyl] benzene-1-sulfonamide]: the EC50 in data set [1] (24 h) came out at 440 nM; in data set [3] (24 h), 420 nM.

As to `CN1CCN(c2nc(C34CC5CC(CC(C5)C3)C4)cs2)CC1` [Example D35, 1-[4-(adamantan-1-yl)-1,3-thiazol-2-yl]-4-methylpiperazine], the results for the EC50 in data set [1] (24 h) and in data set [3] (24 h) were 440 nM and 620 nM, respectively.

Turning to `c1ccn2c(CN3CCCCC3)c(C34CC5CC(CC(C5)C3)C4)nc2c1` [Example D37], the EC50 was determined as 8900 nM in data set [1] (24 h) and 3200 nM in data set [3] (24 h).

As for `C#CCN1CCC(C(=O)Nc2cc(C34CC5CC(CC(C5)C3)C4)n[nH]2)CC1` [Example D38, N-[5-(adamantan-1-yl)-1H-pyrazol-3-yl]-1-(prop-2-yn-1-yl) piperidine-4-carboxamide], the EC50 amounted to 3700 nM in data set [1] (24 h) and 6800 nM in data set [3] (24 h).
